Molecular target: T1, AhR (Homo sapiens, UniProt P35869)
T1 sequence (P35869 11-848): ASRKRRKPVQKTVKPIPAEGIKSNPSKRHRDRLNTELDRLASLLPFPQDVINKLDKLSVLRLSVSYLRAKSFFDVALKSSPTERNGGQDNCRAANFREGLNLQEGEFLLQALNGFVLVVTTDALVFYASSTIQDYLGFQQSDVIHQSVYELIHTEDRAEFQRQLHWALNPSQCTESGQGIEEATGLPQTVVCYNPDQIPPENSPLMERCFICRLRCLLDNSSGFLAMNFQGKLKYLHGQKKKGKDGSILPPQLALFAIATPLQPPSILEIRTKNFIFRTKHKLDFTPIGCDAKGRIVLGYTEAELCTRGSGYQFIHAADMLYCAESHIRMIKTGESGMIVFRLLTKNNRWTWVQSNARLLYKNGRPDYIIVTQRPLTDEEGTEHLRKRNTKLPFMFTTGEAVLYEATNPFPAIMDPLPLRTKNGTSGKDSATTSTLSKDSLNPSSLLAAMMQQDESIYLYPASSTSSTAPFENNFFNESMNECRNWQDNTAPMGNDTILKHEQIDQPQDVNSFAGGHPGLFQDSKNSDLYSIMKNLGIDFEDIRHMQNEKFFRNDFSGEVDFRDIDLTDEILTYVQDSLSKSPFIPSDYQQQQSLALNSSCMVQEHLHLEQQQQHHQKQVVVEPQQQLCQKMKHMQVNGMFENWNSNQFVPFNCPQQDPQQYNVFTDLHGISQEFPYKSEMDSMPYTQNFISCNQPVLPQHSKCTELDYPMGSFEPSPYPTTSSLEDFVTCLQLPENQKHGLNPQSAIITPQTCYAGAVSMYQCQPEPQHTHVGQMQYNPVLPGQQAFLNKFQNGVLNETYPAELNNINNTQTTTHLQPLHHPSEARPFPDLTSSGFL
Test: AhR antagonism in human PBMCs - inhibition of IL-22 release
Format: cell-based
Parameters: endogenous in cells
Conditions: human PBMCs activated with CD3/CD28 agonist mixture, 72 hrs, IL-22 ELISA; average; read-out: hPBMC Inhibition of CD3/CD28 induced IL-22 release: av. pIC50 (converted)
Text: In Vitro Assay 3: AhR Antagonism in Human Peripheral Blood Mononuclear Cells (PBMCs)-Inhibition of Interleukin-22 (IL-22) Release.
PBMCs were isolated from human peripheral blood using Lymphoprep™ and diluted to 1×10^6 cells per ml in RPMI media containing […] foetal bovine serum, 1% penicillin-streptomycin and 1% non essential amino acids. PBMCs were subsequently activated with 1p1 per 100,000 cells of a CD3/CD28 agonist mixture (human T Cell TransAct™ (Miltenyi Biotec)) and then plated at 100,000 cells per well in a round bottom 96 well tissue culture plate. One hour after stimulation seven concentrations of each test compound or vehicle (final [DMSO] 0.2%) were added. The plates were then placed in an incubator at 37° C., ≥85% humidity, 5% […] for 72 hrs before the media was removed and stored at −20° C. until cytokine analysis. IL-22 was measured using human IL-22 DuoSet ELISA (R&D systems) according to the manufacturer's instructions.

| IC50 [µM] | Structure (SMILES) |
| --- | --- |
| 0.00302 | C[C@H]1CNc2nc(-c3cncc(F)c3)nc(NCCc3c[nH]c4ccccc34)c2O1 [Example 29, (6S)-2-(5-fluoro-3-pyridyl)-N-[2-(1H-indol-3-yl)ethyl]-6-methyl-7,8-dihydro-6H-pyrimido[5,4-b][1,4]oxazin-4-amine] |
| 0.0562 | Fc1ccc(-c2nc3c(c(NCCc4c[nH]c5ccccc45)n2)OCCN3)cc1 [Example 2, 2-(4-fluorophenyl)-N-[2-(1H-indol-3-yl)ethyl]-7,8-dihydro-6H-pyrimido[5,4-b][1,4]oxazin-4-amine] |
| 0.00813 | Cc1ncsc1-c1nc2c(c(NCCc3c[nH]c4ccccc34)n1)OCCN2 [Example 10, N-[2-(1H-indol-3-yl)ethyl]-2-(4-methylthiazol-5-yl)-7,8-dihydro-6H-pyrimido[5,4-b][1,4]oxazin-4-amine] |
| > 2 | Cn1cc(-c2nc3c(c(NCCc4c[nH]c5ccccc45)n2)OCCN3)nn1 [Example 55, N-[2-(1H-indol-3-yl)ethyl]-2-(1-methyltriazol-4-yl)-7,8-dihydro-6H-pyrimido[5,4-b][1,4]oxazin-4-amine] |

Molecular target: T1, AhR
Test: AhR antagonism in U937 cells (Promega P450-Glo assay)
Format: cell-based
Parameters: endogenous in cells; host or cells: U937 cells
Conditions: CYP1A1 activity readout (Luciferin-CEE), head names VAF347, average, read-out: U937 Antagonist pIC50-VAF347: av. pIC50 (converted)
Procedure: In Vitro Assay 1: AhR Antagonism in U937 Cells (Promega P450-Glo™ Assay)
AhR antagonism was assessed in LJ937 cells (myeloid lineage cell line derived from a human histiocytic lymphoma). Ligand binds the AhR in the cytoplasm, and the AhR-ligand complex translocates to the nucleus and forms a heterodimer with AhR nuclear translocator (Arnt). This complex binds the xenobiotic response element (XRE) in the 5′ upstream region of the CYP1A1 promoter, enhancing CYP1A1 expression. CYP1A1 activity is subsequently determined by assessing the conversion of Luciferin-CEE to luciferin, which in turn reacts with luciferase to produce light. The amount of light produced is directly proportional to cytochrome P450 activity. U937 cells in Ultraculture serum free media (Lonza) were plated at 100,000 cells per well in a round bottom 96 well tissue culture plate. […] The plates were then placed in an incubator at 37° C., ≥85% humidity, 5% CO2 for 24 hrs. After aspiration of the supernatant the CYP1A1 substrate Luciferin-CEE ([Final] 83 μM) was added and incubated for 3 hrs before the reaction was stopped by adding luciferin detection reagent and luminescence was read after 20 minutes.

| IC50 [µM] | Structure (SMILES) |
| --- | --- |
| > 0.813 | COc1ncc(F)cc1-c1nc2c(c(N[C@@H]3CCc4[nH]c5ccccc5c4C3)n1)OCCN2 [Example 65, 2-(5-fluoro-2-methoxy-3-pyridyl)-N-[(3R)-2,3,4,9-tetrahydro-1H-carbazol-3-yl]-7,8-dihydro-6H-pyrimido[5,4-b][1,4]oxazin-4-amine] |
| 0.0813 | O=c1[nH]cc(C(F)(F)F)cc1-c1nc2c(c(NCCc3c[nH]c4ccccc34)n1)OCCN2 [Example 69, 3-(4-((2-(1H-indol-3-yl)ethyl)amino)-7,8-dihydro-6H-pyrimido[5,4-b][1,4]oxazin-2-yl)-5-(trifluoromethyl)pyridin-2 (1H)-one] |
| 0.0178 | Cc1nc(C)c(-c2nc3c(c(NCCc4c[nH]c5ccccc45)n2)OCCN3)s1 [Example 52, 2-(2,4-dimethylthiazol-5-yl)-N-[2-(1H-indol-3-yl)ethyl]-7,8-dihydro-6H-pyrimido[5,4-b][1,4]oxazin-4-amine] |
| 0.0331 | Cc1c[nH]c(=O)c(-c2nc3c(c(NCCc4c[nH]c5ccccc45)n2)OCCN3)c1 [Example 68, 3-[4-[2-(1H-indol-3-yl)ethylamino]-7,8-dihydro-6H-pyrimido[5,4-b][1,4]oxazin-2-yl]-5-methyl-pyridin-2-ol] |
| 0.00324 | COC[C@@H]1COc2c(NCCc3c[nH]c4cc(F)ccc34)nc(-c3ccc[nH]c3=O)nc2N1 [Example 47, (R)-3-(4-((2-(6-fluoro-1H-indol-3-yl)ethyl)amino)-7-(methoxymethyl)-7,8-dihydro-6H-pyrimido[5,4-b][1,4]oxazin-2-yl)pyridin-2(1H)-one] |
| 0.0148 | O=c1[nH]cc(Cl)cc1-c1nc2c(c(NCCc3c[nH]c4ccccc34)n1)OCCN2 [Example 72, 3-(4-((2-(1H-indol-3-yl)ethyl)amino)-7,8-dihydro-6H-pyrimido[5,4-b][1,4]oxazin-2-yl)-5-chloropyridin-2-ol] |
| 0.204 | Cc1ncc(-c2nc3c(c(N[C@@H]4CCc5[nH]c6ccccc6c5C4)n2)OCCN3)s1 [Example 51, 2-(2-methylthiazol-5-yl)-N-[(3R)-2,3,4,9-tetrahydro-1H-carbazol-3-yl]-7,8-dihydro-6H-pyrimido[5,4-b][1,4]oxazin-4-amine] |
| 0.0661 | COc1ncc(F)cc1-c1nc2c(c(NCCc3c[nH]c4ccccc34)n1)OCCN2 [Example 67, 2-(5-fluoro-2-methoxy-3-pyridyl)-N-[2-(1H-indol-3-yl)ethyl]-7,8-dihydro-6H-pyrimido[5,4-b][1,4]oxazin-4-amine] |
| 0.347 | Cn1cc(-c2nc3c(c(NCCc4c[nH]c5ccccc45)n2)OCCN3)ccc1=O [Example 58, 5-[4-[2-(1H-indol-3-yl)ethylamino]-7,8-dihydro-6H-pyrimido[5,4-b][1,4]oxazin-2-yl]-1-methyl-pyridin-2-one] |

The remaining lines, values behind:

| Structure (SMILES) | IC50 [µM] |
| --- | --- |
| C[C@H]1CNc2nc(-c3cncc(F)c3)nc(NCCc3c[nH]c4ccccc34)c2O1 [Example 29, (6S)-2-(5-fluoro-3-pyridyl)-N-[2-(1H-indol-3-yl)ethyl]-6-methyl-7,8-dihydro-6H-pyrimido[5,4-b][1,4]oxazin-4-amine] | 0.00219 |
| Fc1ccc(-c2nc3c(c(NCCc4c[nH]c5ccccc45)n2)OCCN3)cc1 [Example 2, 2-(4-fluorophenyl)-N-[2-(1H-indol-3-yl)ethyl]-7,8-dihydro-6H-pyrimido[5,4-b][1,4]oxazin-4-amine] | 0.0251 |
| Cc1ncsc1-c1nc2c(c(NCCc3c[nH]c4ccccc34)n1)OCCN2 [Example 10, N-[2-(1H-indol-3-yl)ethyl]-2-(4-methylthiazol-5-yl)-7,8-dihydro-6H-pyrimido[5,4-b][1,4]oxazin-4-amine] | 0.00457 |
| Cc1ccc(-c2nc3c(c(NCCc4c[nH]c5ccccc45)n2)OCCN3)cn1 [Example 15, N-[2-(1H-indol-3-yl)ethyl]-2-(6-methyl-3-pyridyl)-7,8-dihydro-6H-pyrimido[5,4-b][1,4]oxazin-4-amine] | 0.0891 |
| O=c1[nH]cccc1-c1nc2c(c(NCCc3c(Cl)[nH]c4ccccc34)n1)OCCN2 [Example 40, 3-(4-((2-(2-chloro-1H-indol-3-yl)ethyl)amino)-7,8-dihydro-6H-pyrimido[5,4-b][1,4]oxazin-2-yl)pyridin-2(1H)-one] | 0.0151 |
| CC1(C)COc2c(NCCc3c[nH]c4ccccc34)nc(-c3cncc(F)c3)nc2N1 [Example 31, 2-(5-fluoro-3-pyridyl)-N-[2-(1H-indol-3-yl)ethyl]-7,7-dimethyl-6,8-dihydropyrimido[5,4-b][1,4]oxazin-4-amine] | 0.0162 |
| Oc1ncccc1-c1nc2c(c(NCCc3c[nH]c4cc(OC(F)(F)F)ccc34)n1)OCCN2 [Example 43, 3-(4-((2-(6-(trifluoromethoxy)-1H-indol-3-yl)ethyl)amino)-7,8-dihydro-6H-pyrimido[5,4-b][1,4]oxazin-2-yl)pyridin-2(1H)-one] | 0.00708 |
| Cc1ncc(-c2nc(N[C@@H]3CCc4[nH]c5ccccc5c4C3)c3c(n2)N(S(C)(=O)=O)CCO3)s1 [Example 39, 8-methylsulfonyl-2-(2-methylthiazol-5-yl)-N-[(3R)-2,3,4,9-tetrahydro-1H-carbazol-3-yl]-6,7-dihydropyrimido[5,4-b][1,4]oxazin-4-amine] | 0.0891 |
| Cc1[nH]c2c(F)cccc2c1CCNc1nc(-c2ccc[nH]c2=O)nc2c1OCCN2 [Example 41, 3-[4-[2-(7-fluoro-2-methyl-1H-indol-3-yl)ethylamino]-7,8-dihydro-6H-pyrimido[5,4-b][1,4]oxazin-2-yl]-1H-pyridin-2-one] | 0.0195 |
| Cc1[nH]c2c(F)cc(F)cc2c1CCNc1nc(-c2ccc[nH]c2=O)nc2c1OCCN2 [Example 42, 3-(4-((2-(5,7-difluoro-2-methyl-1H-indol-3-yl)ethyl)amino)-7,8-dihydro-6H-pyrimido[5,4-b][1,4]oxazin-2-yl)pyridin-2-ol] | 0.209 |
| O=c1ccc(-c2nc3c(c(NCCc4c[nH]c5ccccc45)n2)OCCN3)c[nH]1 [Example 18, 5-[4-[2-(1H-indol-3-yl)ethylamino]-7,8-dihydro-6H-pyrimido[5,4-b][1,4]oxazin-2-yl]-1H-pyridin-2-one] | 0.447 |
| Cc1ncc(-c2nc3c(c(NCCc4c[nH]c5ccccc45)n2)OCCN3)cc1F [Example 16, 2-(5-fluoro-6-methyl-3-pyridyl)-N-[2-(1H-indol-3-yl)ethyl]-7,8-dihydro-6H-pyrimido[5,4-b][1,4]oxazin-4-amine] | 0.0331 |
| COc1ncc(C)cc1-c1nc2c(c(NCCc3c[nH]c4ccccc34)n1)OCCN2 [Example 23, N-[2-(1H-indol-3-yl)ethyl]-2-(2-methoxy-5-methyl-3-pyridyl)-7,8-dihydro-6H-pyrimido[5,4-b][1,4]oxazin-4-amine] | 0.457 |

From US20250129092A1, “COMPOUNDS USEFUL IN MODULATION OF AHR SIGNALLING” (JAGUAHR THERAPEUTICS PTE LTD, priority 2021, published 2025)
